Counter-ions that a name gives are not always drawn. Like-named read-outs stand apart in the source and are kept apart here.
Key:
Type in all cases: cell-based, human
beige adipocytes [1] = test: High-throughput primary screen, lipolysis assay (glycerol release), 384-well; details: 20 μM; for % Control (relative levels of glycerol release): 24 hours of drug treatment, vs untreated beige adipocytes; for Outcome in the primary screen (glycerol release), in words: 24 hours, cut-offs at 2-fold
Experimental: ADSCs were seeded at 5000 cell/cm^2 in 12-well plates, grown for 5 days and then induced to differentiate into GC for 20 days. […] Cells were treated with forskolin (20 μM) for indicated time periods and supernatant samples were collected. Lipolysis assay was performed with free glycerol reagent (Sigma, F6428-40ML), according to manufacturer instructions.
ADSCs were plated in 384-well plates at a density of 5000 cell/cm2 and grown to confluency over ˜4 days. Cells were then differentiated to beige adipocytes using B-8 medium for 21 days. All cell culture and incubations in the 384-well format were done at 37° C. and 5% CO2. […] The use of FDA-approved drugs may allow for re-purposing for therapeutic use.
(§1) Lipolysis assays were performed after 24 hours of drug treatment by measuring free glycerol released in the 384-well format, using the procedure described above. Absorbance for each compound was normalized to untreated control samples for each plate and calculated as a percent of the control. Cut-offs for “activating” and “inhibiting” compounds were set at 2-fold. Validation assays were performed for select compounds at a range of concentration doses.

beige adipocytes [2] = test: Lipolysis validation assays of primary hits at three concentrations; set-up: % of Control (1) / % of Control (2) / % of Control (3) / % of Control (4): unit of the concentration uncertain; details: for activity at 2.2 µM: Conc. 2.2 µM; for activity at 6.7 µM: Conc. 6.7 µM; for activity at 20 µM: Conc. 20 µM; for activity at 2200 µM: Conc. 2.2 mM
Experimental: ADSCs were seeded at 5000 cell/cm^2 in 12-well plates, grown for 5 days and then induced to differentiate into GC for 20 days. Prior to the assay, cells were washed in DPBS twice and then incubated with DMEM with 2% fatty-acid free BSA (Santa Crus, sc-500949) and Triascin C (5 μM). Cells were treated with forskolin (20 μM) for indicated time periods and supernatant samples were collected. Lipolysis assay was performed with free glycerol reagent (Sigma, F6428-40ML), according to manufacturer instructions.
as §1
Next, lipolysis assays were performed for all 111 compounds identified in the primary screen at three different concentrations, of which twenty-four were selected for further analysis based on their newness and/or reproducibility.

UCP1 = test: Secondary screen, UCP1 transcript levels by qRT-PCR; details: secondary screen of primary hits
Text: FIG. 8A is a scheme used for high-throughput screening (HTS). FIG. 8B is a scatter-plot of glycerol release for each compound assayed (n=3889) in an HTS screen. Data are shown as the percentage of glycerol released compared to untreated beige adipocytes (% of control). FIG. 8C is a computational analysis of preliminary hits identified in the HTS using BiNChE. FIG. 8D is a plot showing the results of a secondary hit validation of primary compounds performed by evaluating levels of UCP1 transcript by qRT-PCR. Unstimulated beige cells, selected adrenergic agonists, and potential new non-adrenergic beige fat activators identified in the primary screen are shown. Transcript levels were normalized to UCP1 levels in ADSCs, n=3 for each technical 20 replicate. *P<0.0.05, **P<0.01, ***P<0.005. FIGS. 8E and 8F are bar graphs showing secondary screening of known thermogenic activators. Transcript levels of UCP1 were assayed in unstimulated ADSCs and ADSC-derived beige adipocytes and following treatment with forskolin (FSK, 20 μM), isoproterenol (1, 10 μM) (8E) and Mirabegron (1, 10 and 25 μM) (8F). Transcript levels were determined by qRT-PCR. n=3 for each independent replicate. Data are mean+/−standard deviation. *P<0.0.05, **P<0.01.
Cells were washed with DPBS, lysed directly on the plate and used for RNA isolation with the E.Z.N.A Total RNA Kit (Omega, R6834-02) according to manufacturer instructions. RNA quantitation was performed with the Biotek Synergy 2 plate reader and cDNA was synthesized using 1 ug of RNA with the iScript cDNA Synthesis Kit (Bio-Rad, 1708841). The qRT-PCR was performed on a ViiA7 Real-Time PCR System (ThermoFisher) using a TaqMan Universal PCR Master Mix (ThermoFisher, 4324020) according to manufacturer instructions with the following TaqMan primer/probe sets (UCP1, Hs01084772_m1), DIO2, Hs00988260_ml, 18S rRNA, Hs03928985_g1). Each assay was performed in triplicate and normalized to 18S rRNA and graphed as mean+/−standard deviation.
To determine if hits identified in the first-round screen activated the thermogenic program, UCP1 transcript levels were used as a readout. This secondary screen incorporated adrenergic agonists, such as Mirabegron, isoproterenol and phenylephrine, and eighteen additional compounds with no reported function in thermogenic regulation (FIG. 8D, 8E, 8F). 18/25 (72%) of the lipolysis-activating compounds identified in the primary screen also activate the thermogenic program through UCP1. Twelve of these compounds have no reported adrenergic agonist activity and could potentially operate through different signaling mechanisms (FIG. 8D and Table 9).

[3] = Homo sapiens, Adipocyte, 24 h, read-out: % of Control (2)
[4] = Homo sapiens, Adipocyte, 24 h, read-out: % of Control (4)
[5] = Homo sapiens, Adipocyte, 24 h, read-out: % of Control (1)
[6] = Homo sapiens, Adipocyte, 24 h, read-out: % of Control (3)

## Oc1ccc(-c2nc(-c3ccc(F)cc3)c(-c3ccncc3)[nH]2)cc1 [SB202190 (FHPI)]
Beige adipocytes [1]
  % Control (relative levels of glycerol release): 34.88 % control

## CC(C)(C)NCC(O)COc1cccc2c1CCC(=O)N2.Cl (centres unmarked) [Carteolol HLC]
Beige adipocytes [1]
  % Control (relative levels of glycerol release): 32.31 % control

## Cc1ccc([N+](=O)[O-])cc1S(=O)(=O)N(C)/N=C/c1cnc2ccc(Br)cn12 [PIK-75]
Beige adipocytes [2]; Conc. 2.2 (unit uncertain)
  % of Control (1): 197.74 % of Control
  % of Control (2): 134.71 % of Control
  % of Control (3): 183.08 % of Control
  % of Control (4): 136.9 % of Control
Beige adipocytes [2]; Conc. 6.7 (unit uncertain)
  % of Control (1): 280.95 % of Control
  % of Control (2): 197.53 % of Control
  % of Control (3): 165.05 % of Control
  % of Control (4): 207.93 % of Control
Beige adipocytes [2]; Conc. 20 (unit uncertain)
  % of Control (1): 158.45 % of Control
  % of Control (2): 244.82 % of Control
  % of Control (3): 198.79 % of Control
  % of Control (4): 233.79 % of Control
UCP1
  Activation of the thermogenic program (UCP1 transcript), in words: activators in both rounds of screening

## CC(C)NC[C@H](O)c1ccc(O)c(O)c1.O=C(O)C(O)C(O)C(=O)O [R(+)-Isoproterenol (+)-bitartrate]
Beige adipocytes [1]
  % Control (relative levels of glycerol release): 363.04 % control

## CC1(C)C(=O)N(CCN2CCC(C(=O)c3ccc(F)cc3)CC2)c2ccccc21 [LY-310, 762]
Beige adipocytes [2]; Conc. 2.2 (unit uncertain)
  % of Control (1): 179.4 % of Control
  % of Control (2): 180.24 % of Control
  % of Control (3): 180.44 % of Control
  % of Control (4): 143.79 % of Control
Beige adipocytes [2]; Conc. 6.7 (unit uncertain)
  % of Control (1): 179.76 % of Control
  % of Control (2): 199.88 % of Control
  % of Control (3): 222.09 % of Control
  % of Control (4): 289.77 % of Control
Beige adipocytes [2]; Conc. 20 (unit uncertain)
  % of Control (1): 264.29 % of Control
  % of Control (2): 223.06 % of Control
  % of Control (3): 225.27 % of Control
  % of Control (4): 201.38 % of Control
UCP1
  Activation of the thermogenic program (UCP1 transcript), in words: activators in both rounds of screening

## COc1ccc(-c2cc3c(C)nc(N)nc3n([C@H]3CC[C@H](OCCO)CC3)c2=O)cn1 [PF-04691502]
Beige adipocytes [2]; Conc. 2.2 (unit uncertain)
  % of Control (1): 171.55 % of Control
  % of Control (2): 138.35 % of Control
  % of Control (3): 232.86 % of Control
  % of Control (4): 105.98 % of Control
Beige adipocytes [2]; Conc. 6.7 (unit uncertain)
  % of Control (1): 257.98 % of Control
  % of Control (2): 216.59 % of Control
  % of Control (3): 225.05 % of Control
  % of Control (4): 155.98 % of Control
Beige adipocytes [2]; Conc. 20 (unit uncertain)
  % of Control (1): 304.52 % of Control
  % of Control (2): 224.71 % of Control
  % of Control (3): 171.76 % of Control
  % of Control (4): 302.07 % of Control
UCP1
  Activation of the thermogenic program (UCP1 transcript), in words: activators in both rounds of screening

## COc1cc2c(cc1OC)-c1c/c(=N\c3c(C)cc(C)cc3C)n(C)c(=O)n1CC2 [Trequinsin HCl]
Beige adipocytes [2]; [3]
  activity at 2.2 µM: 251%
  activity at 6.7 µM: 264%
  activity at 20 µM: 292%
Beige adipocytes [2]; [4]
  activity at 2.2 µM: 244%
  activity at 6.7 µM: 215%
  activity at 20 µM: 248%
Beige adipocytes [2]; [5]
  activity at 6.7 µM: 271%
  activity at 20 µM: 284%
  activity at 2200 µM: 240%
Beige adipocytes [2]; [6]
  activity at 6.7 µM: 232%
  activity at 20 µM: 256%
  activity at 2200 µM: 188%
UCP1
  Activation of the thermogenic program (UCP1 transcript), in words: efficacy in beige cell activation

## CC(C)NCC(O)c1ccc(O)c(O)c1.Cl (racemic) [(±)-Isoproterenol hydrochloride]
Beige adipocytes [1]
  % Control (relative levels of glycerol release): 389.02 % control

## CC(C)NC[C@@H](O)c1ccc(O)c(O)c1.O=C(O)C(O)C(O)C(=O)O [S(−)-Isoproterenol (+)-bitartrate]
Beige adipocytes [1]
  % Control (relative levels of glycerol release): 367.84 % control

## CC(C)NCC(O)c1ccc(O)c(O)c1 (centres unmarked) [Isoproterenol HCl]
Beige adipocytes [2]; [3]
  activity at 2.2 µM: 272%
  activity at 6.7 µM: 294%
  activity at 20 µM: 268%
Beige adipocytes [2]; [4]
  activity at 2.2 µM: 251%
  activity at 6.7 µM: 236%
  activity at 20 µM: 237%
Beige adipocytes [2]; [5]
  activity at 6.7 µM: 284%
  activity at 20 µM: 289%
  activity at 2200 µM: 282%
Beige adipocytes [2]; [6]
  activity at 6.7 µM: 241%
  activity at 20 µM: 252%
  activity at 2200 µM: 236%
Beige adipocytes [1]
  Outcome in the primary screen (glycerol release), in words: identified as primary hits

## Nc1nc(CC(=O)Nc2ccc(CCNC[C@H](O)c3ccccc3)cc2)cs1 [Mirabegron]
Beige adipocytes [2]; [3]
  activity at 2.2 µM: 198%
  activity at 6.7 µM: 162%
  activity at 20 µM: 211%
Beige adipocytes [2]; [4]
  activity at 2.2 µM: 131%
  activity at 6.7 µM: 192%
  activity at 20 µM: 201%
Beige adipocytes [2]; [6]
  activity at 6.7 µM: 168%
  activity at 20 µM: 65%
  activity at 2200 µM: 172%
Beige adipocytes [2]; [5]
  activity at 20 µM: 200%
  activity at 2200 µM: 142%
Beige adipocytes [2]; Homo sapiens, Adipocyte, 24 h, Conc. 6.7 mM, read-out: % of Control (1)
  activity at 6700 µM: 203%
Beige adipocytes [1]
  % Control (relative levels of glycerol release): 211.65 % control
  Outcome in the primary screen (glycerol release), in words: efficacy in the HTS

## CNC(=O)c1ccc(C)c(-n2c(C)cc(OCc3ccc(F)cc3F)c(Br)c2=O)c1 [PH-797804]
Beige adipocytes [1]
  % Control (relative levels of glycerol release): 38.23 % control

## COC1(C2=NCCN2)COc2ccccc2O1.Cl (centres unmarked) [RX 821002 hydrochloride]
Beige adipocytes [1]
  % Control (relative levels of glycerol release): 30.77 % control
